Assay results: ChEMBL document CHEMBL3885881, “DrugMatrix”

Organism: Rattus norvegicus
Test: DrugMatrix - Regimen: Daily Repeat
Format: toxicity, organism-based, Sprague-Dawley
Design: regimen Daily Repeat, gender Male, age 6-8 weeks
Conditions: in vivo, po, route oral GAVAGE, […]; for ABSOLUTE BASOPHIL / ABSOLUTE EOSINOPHIL / ABSOLUTE LYMPHOCYTE / ABSOLUTE MONOCYTE / ABSOLUTE SEGMENTED NEUTROPHIL / BASOPHIL / EOSINOPHIL / ERYTHROCYTE COUNT / HEMATOCRIT / HEMOGLOBIN / LEUKOCYTE COUNT / LYMPHOCYTE / MEAN CORPUSCULAR HEMOGLOBIN / MEAN CORPUSCULAR HEMOGLOBIN CONCENTRATION / MEAN CORPUSCULAR VOLUME / MONOCYTE / NEUTROPHIL / NUCLEATED RED BLOOD CELLS / PLATELET COUNT: tissue Blood; for ALANINE AMINOTRANSFERASE / ALBUMIN / ALKALINE PHOSPHATASE / ASPARTATE AMINOTRANSFERASE / BLOOD UREA NITROGEN / CARBON DIOXIDE / CHLORIDE / CHOLESTEROL / CREATINE PHOSPHOKINASE / CREATININE / GLUCOSE / LACTATE DEHYDROGENASE / LIPASE / PHOSPHORUS / POTASSIUM / SODIUM / TOTAL BILIRUBIN / TOTAL PROTEIN / URIC ACID: tissue Plasma
[1] = 52 mg/kg, 72 h, dose level High, time 3 day
[2] = 52 mg/kg, 120 h, dose level High, time 5 day
[3] = 72 h, dose 5.2 mg/Kg, dose level Low, time 3 day
[4] = 120 h, dose 5.2 mg/Kg, dose level Low, time 5 day

CC(C(=O)O)c1cccc(Oc2ccccc2)c1 (configuration not stated) [FENOPROFEN]
ABSOLUTE BASOPHIL [1]: 0 CELLS/uL | ABSOLUTE EOSINOPHIL [1]: 0 CELLS/uL | ABSOLUTE LYMPHOCYTE [1]: 16297.67 CELLS/uL | ABSOLUTE MONOCYTE [1]: 471.33 CELLS/uL | ABSOLUTE SEGMENTED NEUTROPHIL [1]: 2164.33 CELLS/uL | BASOPHIL [1]: 0% | EOSINOPHIL [1]: 0% | ERYTHROCYTE COUNT [1]: 5.47 x10E6/uL | HEMATOCRIT [1]: 33.6% | HEMOGLOBIN [1]: 13.27 G/DL | LEUKOCYTE COUNT [1]: 18.93 x10E3/uL | LYMPHOCYTE [1]: 87.33% | MEAN CORPUSCULAR HEMOGLOBIN [1]: 24.23 pg | MEAN CORPUSCULAR HEMOGLOBIN CONCENTRATION [1]: 39.5 G/DL | MEAN CORPUSCULAR VOLUME [1]: 61.37 fL | MONOCYTE [1]: 2.33% | NEUTROPHIL [1]: 10.33% | NUCLEATED RED BLOOD CELLS [1]: 0 /100WBC | PLATELET COUNT [1]: 1245.33 x10E3/uL | ALANINE AMINOTRANSFERASE [1]: 68.33 u/L | ALBUMIN [1]: 3.93 G/DL | ALKALINE PHOSPHATASE [1]: 437.33 u/L | ASPARTATE AMINOTRANSFERASE [1]: 102 u/L | BLOOD UREA NITROGEN [1]: 14.67 mg/dL | CARBON DIOXIDE [1]: 28.67 mmol/L | CHLORIDE [1]: 102.33 MEQ/L | CHOLESTEROL [1]: 63.33 mg/dL | CREATINE PHOSPHOKINASE [1]: 360.67 u/L | CREATININE [1]: 0.15 mg/dL | GLUCOSE [1]: 149.67 mg/dL | LACTATE DEHYDROGENASE [1]: 593 u/L | LIPASE [1]: 12 u/L | PHOSPHORUS [1]: 11.6 mg/dL | POTASSIUM [1]: 7.04 MEQ/L | SODIUM [1]: 141.5 MEQ/L | TOTAL BILIRUBIN [1]: 0.17 mg/dL | TOTAL PROTEIN [1]: 5.37 G/DL | URIC ACID [1]: 1.53 mg/dL | ABSOLUTE BASOPHIL [2]: 0 CELLS/uL | ABSOLUTE EOSINOPHIL [2]: 54 CELLS/uL | ABSOLUTE LYMPHOCYTE [2]: 12815.33 CELLS/uL | ABSOLUTE MONOCYTE [2]: 148.67 CELLS/uL | ABSOLUTE SEGMENTED NEUTROPHIL [2]: 1848.67 CELLS/uL | BASOPHIL [2]: 0% | EOSINOPHIL [2]: 0.33% | ERYTHROCYTE COUNT [2]: 5.11 x10E6/uL | HEMATOCRIT [2]: 33% | HEMOGLOBIN [2]: 13.3 G/DL | LEUKOCYTE COUNT [2]: 14.87 x10E3/uL | LYMPHOCYTE [2]: 85.67% | MEAN CORPUSCULAR HEMOGLOBIN [2]: 26 pg | MEAN CORPUSCULAR HEMOGLOBIN CONCENTRATION [2]: 40.3 G/DL | MEAN CORPUSCULAR VOLUME [2]: 64.53 fL | MONOCYTE [2]: 1% | NEUTROPHIL [2]: 13% | NUCLEATED RED BLOOD CELLS [2]: 0.33 /100WBC | PLATELET COUNT [2]: 1200 x10E3/uL | ALANINE AMINOTRANSFERASE [2]: 64.67 u/L | ALBUMIN [2]: 4.13 G/DL | ALKALINE PHOSPHATASE [2]: 380.33 u/L | ASPARTATE AMINOTRANSFERASE [2]: 93.33 u/L | BLOOD UREA NITROGEN [2]: 13.33 mg/dL | CARBON DIOXIDE [2]: 23 mmol/L | CHLORIDE [2]: 100.67 MEQ/L | CHOLESTEROL [2]: 57.33 mg/dL | CREATINE PHOSPHOKINASE [2]: 263.67 u/L | CREATININE [2]: 0.17 mg/dL | GLUCOSE [2]: 175 mg/dL | LACTATE DEHYDROGENASE [2]: 284 u/L | LIPASE [2]: 10.67 u/L | PHOSPHORUS [2]: 12 mg/dL | POTASSIUM [2]: 6.69 MEQ/L | SODIUM [2]: 141.5 MEQ/L | TOTAL BILIRUBIN [2]: 0.2 mg/dL | TOTAL PROTEIN [2]: 5.3 G/DL | URIC ACID [2]: 1.77 mg/dL | ABSOLUTE BASOPHIL [3]: 0 CELLS/uL | ABSOLUTE EOSINOPHIL [3]: 60.67 CELLS/uL | ABSOLUTE LYMPHOCYTE [3]: 12618.67 CELLS/uL | ABSOLUTE MONOCYTE [3]: 219.33 CELLS/uL | ABSOLUTE SEGMENTED NEUTROPHIL [3]: 2034.67 CELLS/uL | BASOPHIL [3]: 0% | EOSINOPHIL [3]: 0.33% | ERYTHROCYTE COUNT [3]: 5.49 x10E6/uL | HEMATOCRIT [3]: 35% | HEMOGLOBIN [3]: 14.13 G/DL | LEUKOCYTE COUNT [3]: 14.93 x10E3/uL | LYMPHOCYTE [3]: 84% | MEAN CORPUSCULAR HEMOGLOBIN [3]: 25.83 pg | MEAN CORPUSCULAR HEMOGLOBIN CONCENTRATION [3]: 40.37 G/DL | MEAN CORPUSCULAR VOLUME [3]: 63.93 fL | MONOCYTE [3]: 1.67% | NEUTROPHIL [3]: 14% | NUCLEATED RED BLOOD CELLS [3]: 0 /100WBC | PLATELET COUNT [3]: 1213.67 x10E3/uL | ALANINE AMINOTRANSFERASE [3]: 79.67 u/L | ALBUMIN [3]: 3.83 G/DL | ALKALINE PHOSPHATASE [3]: 345 u/L | ASPARTATE AMINOTRANSFERASE [3]: 100.33 u/L | BLOOD UREA NITROGEN [3]: 10.67 mg/dL | CARBON DIOXIDE [3]: 29 mmol/L | CHLORIDE [3]: 101 MEQ/L | CHOLESTEROL [3]: 66 mg/dL | CREATINE PHOSPHOKINASE [3]: 384 u/L | CREATININE [3]: 0.14 mg/dL | GLUCOSE [3]: 162.33 mg/dL | LACTATE DEHYDROGENASE [3]: 245 u/L | LIPASE [3]: 12.33 u/L | PHOSPHORUS [3]: 11.73 mg/dL | POTASSIUM [3]: 6.15 MEQ/L | SODIUM [3]: 143.37 MEQ/L | TOTAL BILIRUBIN [3]: 0.17 mg/dL | TOTAL PROTEIN [3]: 5.43 G/DL | URIC ACID [3]: 1.5 mg/dL | ABSOLUTE BASOPHIL [4]: 0 CELLS/uL | ABSOLUTE EOSINOPHIL [4]: 43 CELLS/uL | ABSOLUTE LYMPHOCYTE [4]: 9244.67 CELLS/uL | ABSOLUTE MONOCYTE [4]: 125.67 CELLS/uL | ABSOLUTE SEGMENTED NEUTROPHIL [4]: 820 CELLS/uL | BASOPHIL [4]: 0% | EOSINOPHIL [4]: 0.33% | ERYTHROCYTE COUNT [4]: 5.69 x10E6/uL | HEMATOCRIT [4]: 34.97% | HEMOGLOBIN [4]: 13.73 G/DL | LEUKOCYTE COUNT [4]: 10.23 x10E3/uL | LYMPHOCYTE [4]: 90.33% | MEAN CORPUSCULAR HEMOGLOBIN [4]: 24.13 pg | MEAN CORPUSCULAR HEMOGLOBIN CONCENTRATION [4]: 39.3 G/DL | MEAN CORPUSCULAR VOLUME [4]: 61.43 fL | MONOCYTE [4]: 1.33% | NEUTROPHIL [4]: 8% | NUCLEATED RED BLOOD CELLS [4]: 0 /100WBC | PLATELET COUNT [4]: 1094 x10E3/uL | ALANINE AMINOTRANSFERASE [4]: 64 u/L | ALBUMIN [4]: 4.07 G/DL | ALKALINE PHOSPHATASE [4]: 422.67 u/L | ASPARTATE AMINOTRANSFERASE [4]: 91.67 u/L | BLOOD UREA NITROGEN [4]: 12 mg/dL | CARBON DIOXIDE [4]: 28 mmol/L | CHLORIDE [4]: 102.33 MEQ/L | CHOLESTEROL [4]: 57.33 mg/dL | CREATINE PHOSPHOKINASE [4]: 306.67 u/L | CREATININE [4]: 0.15 mg/dL | GLUCOSE [4]: 153 mg/dL | LACTATE DEHYDROGENASE [4]: 198.33 u/L | LIPASE [4]: 11.67 u/L | PHOSPHORUS [4]: 10.13 mg/dL | POTASSIUM [4]: 6.12 MEQ/L | SODIUM [4]: 142.33 MEQ/L | TOTAL BILIRUBIN [4]: 0.13 mg/dL | TOTAL PROTEIN [4]: 5.53 G/DL | URIC ACID [4]: 1.17 mg/dL
